Literature values in patent US20020072062A1, “Chloramphenicol biosynthetic pathway and gene cluster” (Diversa Corporation, priority 1999, published 2002).
Where two headings read alike, the source gives them in different places.

Legend:
[1] = system: Cm-sensitive Micrococcus luteus; settings: against Cm-sensitive Micrococcus luteus; metabolite of Cm from S. lividans M252 pJV4 transformants
[2] = system: Streptomyces venezuelae ISP5230

O=C(NC(COP(=O)(O)O)C(O)c1ccc([N+](=O)[O-])cc1)C(Cl)Cl (stereo not drawn) [3′-O-phospho-Cm]
inhibitory activity [1]: negligible inhibitory activity

Nc1ccc(S(N)(=O)=O)cc1 [sulfanilamide]
sulfanilamide resistance ([2]; before replacement of chromosomal pabAB): 25 micrograms mL-1 | sulfanilamide resistance ([2]; chromosomal pabAB replaced with copy disrupted by apramycin resistance gene): 5 micrograms mL-1
